According to US11186577B2, “Vasopressin receptor antagonists and products and methods related thereto” (BlackThorn Therapeutics, Inc., priority 2017, dated 2021):
Like-named read-outs stand apart in the source and are kept apart here.

What was measured:
Type in all cases: cell-based
[1] = target: human Oxytocin Receptor (hOTR) (Homo sapiens (Human), UniProt P30559); test: Oxytocin receptor antagonist assay (oxytocin-evoked calcium, FLIPR, CHEM-1-hOTR cells); conditions: read-out: OT IC50
Protocol: This assay was performed in CHEM-1 cells expressing the human Oxytocin Receptor (hOTR) to determine the inhibitory effect of the compounds of the invention on the human Oxytocin receptor. Oxytocin evokes an increase in intracellular calcium in CHEM-1-hOTR cells which is measured in a fluorescence assay on the FLIPR^TETRA using calcium sensitive dyes. Test compounds were assessed for their ability to affect the magnitude of the response to oxytocin, with antagonists showing a concentration-dependent reduction in the oxytocin-mediated fluorescence.
CHEM-1-hOTR ready was used to assay frozen cells (Eurofins #HTS090RTA) which are supplied with a proprietary Media Component.
Cells were thawed in a 37° C. water bath and diluted with the supplied Media Component to a final volume of 10 ml. The cell suspension was centrifuged at 1000 rpm for 3 min at room temperature and the supernatant was discarded. The cell pellet was resuspended in Media Component (10.5 ml) and the cells (25 μL) were dispensed into a poly-D-lysine coated black, clear bottomed, 384-well plate. The plates were incubated overnight at 37° C., 5% CO2.
(§1) At the start of each assay day the potency of oxytocin was assessed and an EC80 concentration was determined for subsequent compound profiling. Assays were performed using a two-step addition protocol on the FLIPR^TETRA; first addition of 5 μl of control or test compound at 10× final in assay buffer with 15 min incubation at 37° C., 5% CO2 followed by 10 μl of oxytocin at 6× final concentration in assay buffer. Changes in fluorescence were monitored for 3 min after both additions on the FLIPR^TETRA using 470-495 nm excitation and 515-575 nm emission wavelengths. The assay buffer consisted of HBSS (+Ca/+Mg) supplemented with 20 mM HEPES, and for the preparation of the oxytocin agonist only, 0.1% w/v bovine serum albumin. The assay was initiated by the removal of growth media from the cells and replaced with 45 μl of Calcium-6 dye (Molecular Devices) prepared at 1× in assay buffer. Cells were loaded with dye for 60-90 min at 37° C., 5% CO2 before initiation of the FLIPR^TETRA protocol. […] For compound profiling, test compounds were first serially diluted in DMSO (10-point curve, 1:3 dilutions) then diluted 33.3-fold in assay buffer prior to addition to the dye loaded cells on the FLIPR^TETRA. At the end of the incubation period 10 μl of oxytocin in assay buffer containing 0.1% BSA was added at the previously determined EC80 concentration.
In-plate controls for the assay include a L-368,899 concentration-response curve as the reference OTR antagonist and an oxytocin concentration-response curve to confirm the reproducibility of the EC80 used for the compound challenge.

[2] = target: human Arginine Vasopressin Receptor 1b (AVPR1b) (Homo sapiens (Human), UniProt P47901); test: Vasopressin V1B receptor antagonist assay (AVP-evoked calcium, FLIPR, CHO-AVPR1b cells)
Chain of human Arginine Vasopressin Receptor 1b (AVPR1b) (P47901 whole entry): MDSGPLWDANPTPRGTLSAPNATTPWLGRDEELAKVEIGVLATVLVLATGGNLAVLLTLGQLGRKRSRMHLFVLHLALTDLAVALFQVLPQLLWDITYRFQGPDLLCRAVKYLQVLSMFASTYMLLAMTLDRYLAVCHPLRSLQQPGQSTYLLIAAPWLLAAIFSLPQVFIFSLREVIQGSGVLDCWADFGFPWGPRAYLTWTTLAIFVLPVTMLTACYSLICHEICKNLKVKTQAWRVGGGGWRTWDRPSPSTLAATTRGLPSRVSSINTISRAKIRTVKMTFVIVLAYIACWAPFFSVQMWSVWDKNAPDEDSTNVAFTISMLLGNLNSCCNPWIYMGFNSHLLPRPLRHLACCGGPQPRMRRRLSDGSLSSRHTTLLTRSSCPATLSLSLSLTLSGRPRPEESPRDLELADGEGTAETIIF
Protocol: The purpose of the assay is to determine the inhibitory effect of synthesized compounds on the Vasopressin V1b receptor. The assay was performed in Chinese Hamster Ovary (CHO) cells expressing the human Arginine Vasopressin Receptor 1b (AVPR1b). Arginine Vasopressin (AVP) evokes an increase in intracellular calcium in CHO-AVPR1b cells which is measured in a fluorescence assay on the FLIPR^TETRA using calcium sensitive dyes. Test compounds were assessed for their ability to affect the magnitude of the response to AVP, with antagonists showing a concentration-dependent reduction in the AVP-mediated fluorescence.
CHO-AVPR1b cells were maintained in routine culture in T175 Flasks at 37° C., 5% CO2. The growth medium consisted of Ham's F12 media supplemented with 10% v/v fetal bovine serum, 1× non-essential amino acids, and 0.4 mg/ml Geneticin G418.
(§2) Cells were harvested from T175 flasks when they were 80-90% confluent by first washing the cell monolayer with PBS and then dissociated using trypsin 0.05%/EDTA (3 mL for a T175 Flask). The flasks were incubated at room temperature until the cells detached. To the cell suspension, 10 ml of growth media was added and the cell density determined using the Vi-Cell automated cell counter. The cells were spun at 1000 rpm for 3 minutes, then the supernatant was carefully removed and discarded. The cell pellet was re-suspended at 6.0e^5 cells/ml in growth media. 25 μL of cells in growth media was dispensed into each well (15,000 cells per well) of a poly-D-lysine coated black, clear bottomed, 384-well plate. The plates were incubated at 37° C., 5% CO2 overnight.
as §1, with “day,” for “day”, “AVP is” for “oxytocin was”, “concentration” for “concentration was”, “AVP” for “oxytocin”, “replacement” for “replaced”
In-plate controls for the assay include a Nelivaptan concentration-response curve as the reference V1b antagonist and an AVP concentration-response curve to confirm the reproducibility of the EC80 used for the compound challenge.

[3] = target: human Arginine Vasopressin Receptor 1a (AVPR1a) (Homo sapiens (Human), UniProt P37288); test: Vasopressin V1A receptor antagonist assay (AVP-evoked calcium, FLIPR, CHO-AVPR1a cells)
Chain of human Arginine Vasopressin Receptor 1a (AVPR1a) (P37288 whole entry): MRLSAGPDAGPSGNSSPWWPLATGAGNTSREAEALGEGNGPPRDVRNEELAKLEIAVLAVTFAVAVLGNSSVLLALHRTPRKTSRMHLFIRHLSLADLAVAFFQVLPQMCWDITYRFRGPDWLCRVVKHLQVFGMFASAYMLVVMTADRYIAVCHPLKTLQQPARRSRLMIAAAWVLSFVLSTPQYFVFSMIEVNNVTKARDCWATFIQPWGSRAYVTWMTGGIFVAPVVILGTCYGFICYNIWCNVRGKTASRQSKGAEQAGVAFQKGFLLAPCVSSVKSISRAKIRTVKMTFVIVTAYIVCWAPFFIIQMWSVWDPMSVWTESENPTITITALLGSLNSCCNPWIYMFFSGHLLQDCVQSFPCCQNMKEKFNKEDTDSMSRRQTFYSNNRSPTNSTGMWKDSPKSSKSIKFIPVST
Protocol: The purpose of this assay was to determine the inhibitory effect of synthesized compounds on the Vasopressin V1a receptor. The assay as performed in Chinese Hamster Ovary (CHO) cells expressing the human Arginine Vasopressin Receptor 1a (AVPR1a). Arginine Vasopressin (AVP) evokes an increase in intracellular calcium in CHO-AVPR1a cells which is measured in a fluorescence assay on the FLIPR^TETRA using calcium sensitive dyes. Test compounds were assessed for their ability to affect the magnitude of the response to AVP, with antagonists showing a concentration-dependent reduction in the AVP-mediated fluorescence. Compounds were tested in duplicate in a 10-point, 1:3 dilution series starting at a nominal concentration of 3 μM in the assay.
CHO-AVPR1a cells were maintained in routine culture in T175 Flasks at 37° C., 5% CO2. The growth medium consists of Ham's F12 media supplemented with 10% v/v fetal bovine serum, 1× non-essential amino acids, and 0.4 mg/ml Geneticin G418.
as §2, with “On day one, cells were” for “Cells were”, “they are” for “they were”
At the start of each assay day, the potency of AVP was assessed and an EC80 concentration determined for subsequent compound profiling. Assays were performed using a two-step addition protocol on the FLIPR^TETRA; first addition of 5 μl of control or test compound at 10× final in assay buffer with 15 min incubation at 37° C., 5% CO2 followed by 10 μl of AVP at 6× final concentration in assay buffer. […] The assay buffer consisted of HBSS (+Ca/+Mg) supplemented with 20 mM HEPES, and for the preparation of the AVP agonist only, 0.1% w/v bovine serum albumin. The assay was initiated by the removal of growth media from the cells and replacement with 45 μl of Calcium-6 dye (Molecular Devices) prepared at 1× in assay buffer. Cells are loaded with dye for 60-90 min at 37° C., 5% CO2 before initiation of the FLIPR^TETRA protocol. […] At the end of the incubation period, 10 μl of AVP in assay buffer containing 0.1% BSA was added at the previously determined EC80 concentration.

Chain of human Oxytocin Receptor (hOTR) (P30559 whole entry): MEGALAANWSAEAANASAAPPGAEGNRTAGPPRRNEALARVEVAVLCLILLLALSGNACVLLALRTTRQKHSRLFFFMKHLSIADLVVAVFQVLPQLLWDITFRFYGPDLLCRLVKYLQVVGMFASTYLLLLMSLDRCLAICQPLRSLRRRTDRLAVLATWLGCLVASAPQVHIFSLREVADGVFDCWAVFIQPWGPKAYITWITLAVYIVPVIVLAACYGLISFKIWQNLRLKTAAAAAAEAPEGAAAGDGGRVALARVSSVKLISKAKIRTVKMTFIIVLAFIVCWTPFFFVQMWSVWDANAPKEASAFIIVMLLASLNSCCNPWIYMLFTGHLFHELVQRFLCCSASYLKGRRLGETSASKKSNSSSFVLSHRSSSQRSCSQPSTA

Row | Structure (SMILES) | IC50 [1] [nM] | IC50 [2] [nM] | IC50 ([3]; read-out: V1a IC50) [nM] | IC50 [3] [nM]
1 | CC1c2nnc(C3CC4(C3)CN(c3ncccn3)C4)n2-c2ccc(Cl)cc2CN1C(=O)OC(C)(C)CF (centres unmarked) [compound 196] | > 1000 | > 1000 | < 100 | –
2 | CN1Cc2cc(Cl)ccc2-n2c(nnc2C2CC3(C2)CN(c2cccnc2)C3)C1 [compound 5] | > 1000 | – | – | 100 to 500
3 | CC1c2nnc(C3CC4(C3)CN(c3ncccn3)C4)n2-c2ccc(Cl)cc2CN1C(=O)OC1(C)CC1 (single isomer, unassigned) [Cpd 205A] | 500 to 1000 | > 1000 | < 100 | –
4 | CCC(=O)N1Cc2cc(Cl)ccc2-n2c(nnc2C2CC3(C2)CN(c2ncc(F)cn2)C3)C1 [compound 157] | > 1000 | – | < 100 | –
5 | CC1c2nnc(C3CC4(C3)CN(c3ccc(F)cn3)C4)n2-c2ccc(Cl)cc2CN1C(=O)OC1CC1 (centres unmarked) [compound 191, cyclopropyl 8-chloro-1-(2-(5-fluoropyridin-2-yl)-2-azaspiro[3.3]heptan-6-yl)-4-methyl-4H-benzo[f][1,2,4]triazolo[4,3-a][1,4]diazepine-5(6H)-carboxylate] | 500 to 1000 | – | < 100 | –
6 | CN1Cc2cc(Cl)ccc2-n2c(nnc2C2CC3(C2)CN(c2cccnn2)C3)C1 [compound 13] | > 1000 | – | – | 100 to 500
7 | COc1ccc(N2CC3(CC(c4nnc5n4-c4ccc(Cl)cc4CN(C)C5)C3)C2)nc1 [compound 11] | > 1000 | – | – | 500 to 1000
8 | CN1Cc2cc(Cl)ccc2-n2c(nnc2C2CC3(C2)CN(C(=O)OC(C)(C)C)C3)C1 [compound 9] | 500 to 1000 | – | – | 100 to 500
9 | Cc1cccc(N2CC3(CC(c4nnc5n4-c4ccc(Cl)cc4CN(C)C5)C3)C2)n1 [compound 6] | > 1000 | – | < 100 | –
10 | CCC(=O)N1Cc2cc(Cl)ccc2-n2c(nnc2C2CC3(C2)CN(C(=O)C2CCC2)C3)C1 [compound 37] | > 1000 | – | < 100 | –
11 | CCC(=O)N1Cc2cc(Cl)ccc2-n2c(nnc2C2CC3(C2)CN(c2cccnn2)C3)C1 [compound 108] | > 1000 | – | < 100 | –
12 | CN1Cc2cc(Cl)ccc2-n2c(nnc2C2CC3(C2)CN(C(=O)C2COC2)C3)C1 [compound 14] | > 1000 | – | > 1000 | –
13 | COc1cccc(N2CC3(CC(c4nnc5n4-c4ccc(Cl)cc4CN(C)C5)C3)C2)n1 [compound 7] | > 1000 | – | – | 100 to 500
14 | O=C(C(F)F)N1Cc2cc(Cl)ccc2-n2c(nnc2C2CC3(C2)CN(C(=O)C2CC2)C3)C1 [compound 138] | > 1000 | – | < 100 | –
15 | CC(=O)N1CC2(CC(c3nnc4n3-c3ccc(Cl)cc3CN(C)C4)C2)C1 [compound 15] | > 1000 | – | > 1000 | –
16 | CCC(=O)N1Cc2cc(Cl)ccc2-n2c(nnc2C2CC3(C2)CN(c2ccc(F)nn2)C3)C1 [compound 112] | > 1000 | – | < 100 | –
17 | CC1c2nnc(C3CC4(C3)CN(c3ccc(F)cn3)C4)n2-c2ccc(Cl)cc2CN1C(=O)OC(CF)CF (single isomer, unassigned) [Cpd 203B] | > 1000 | – | > 1000 | –
18 | CCOC(=O)N1Cc2cc(Cl)ccc2-n2c(C3CC4(C3)CN(c3nccc(C(F)F)n3)C4)nnc2C1C (centres unmarked) [compound 189] | > 1000 | – | < 100 | –
19 | COC(=O)N1Cc2cc(Cl)ccc2-n2c(C3CC4(C3)CN(c3ncncc3F)C4)nnc2C1C (centres unmarked) [compound 183] | 100 to 500 | – | – | 100 to 500
20 | Cc1ccc(N2CC3(CC(c4nnc5n4-c4ccc(Cl)cc4CN(C)C5)C3)C2)nc1 [compound 12] | > 1000 | – | – | 100 to 500
21 | CCC(=O)N1Cc2cc(Cl)ccc2-n2c(nnc2C2CC3(C2)CN(c2cccc(C)n2)C3)C1 [compound 109] | > 1000 | – | < 100 | –
22 | CCOC(=O)N1Cc2cc(Cl)ccc2-n2c(nnc2C2CC3(C2)CN(c2ccccn2)C3)C1 [compound 68] | > 1000 | – | < 100 | –
23 | COC(=O)N1Cc2cc(Cl)ccc2-n2c(C3CC4(C3)CN(c3ncncc3F)C4)nnc2C1C (centres unmarked) [compound 188] | 100 to 500 | – | < 100 | –
24 | CN1Cc2cc(Cl)ccc2-n2c(nnc2C2CC3(C2)CN(c2cncc(F)c2)C3)C1 [compound 10] | > 1000 | – | – | 100 to 500
